Measured values: patent US7517910B2, “Alkoxyphenylpropanoic acid derivatives” (Takeda Pharmaceutical Company Limited, priority 2004, dated 2009)
Counter-ions that a name gives are not always drawn.

The molecules below were run against T1, human GPR40 (Homo sapiens, UniProt O14842) (assay: Determination of EC50 against human GPR40: change in intracellular calcium concentration by FLIPR in CHO cells stably expressing human GPR40). Settings: CHO cell line stably expressing human GPR40; intracellular calcium change measured by FLIPR (Fluo3-AM); EC50 from dose-response curve; read-out: EC50 (receptor function modulating action on GPR40).
T1 construct: expressed in transfected cells; host or cells: CHO cell line stably expressing human GPR40
Format: cell-based
Method: Determination of EC50 of the compound of the present invention against human GPR40
For determination of EC50, CHO cell line that stably expressed human GPR40 was used. Unless otherwise indicated, the CHO cell line was cultured using α-MEM medium (Invitrogen) containing 10% fetal bovine serum (Invitrogen).
The cells cultured to nearly confluent were rinsed with PBS (Invitrogen) on the previous day of the assay, peeled off with 0.05% Trypsin.EDTA solution (Invitrogen) and recovered by centrifugation. The number of the obtained cells was counted, and the cells were diluted such that 3×10^5 cells were contained per 1 mL of the medium, dispensed to a black welled 96-well plate (coster) by 100 μL per well and cultured overnight in a CO2 incubator. Various test compounds were added to the CHO cells thus prepared, and the changes in the intracellular calcium concentration were measured using FLIPR (Molecular Device). The below-mentioned pre-treatment was applied to measure changes in the intracellular calcium concentration by FLIPR.
First, an assay buffer for adding a fluorescence dye Fluo3-AM (DOJIN) to the cells, or for washing the cells immediately before FLIPR assay was prepared. To a solution of HBSS (Invitrogen, 1000 mL) added 1 M HEPES (pH 7.4, DOJIN, 20 mL) (hereinafter HBSS/HEPES solution) was added a solution (10 mL) obtained by dissolving probenecid (Sigma, 710 mg) in 1 N NaOH (5 mL), and adding and mixing an HBSS/HEPES solution (5 mL), and the resulting solution was used as an assay buffer. Next, Fluo3-AM (50 μg) was dissolved in dimethyl sulfoxide (Wako, 21 μL), and an equivalent amount of 20% pluronic acid (Molecular Probes) was added and mixed. The solution was added to the assay buffer (10.6 mL) supplemented with fetal bovine serum (105 μL) to give a fluorescence dye solution. The medium of the CHO cells inoculated to the black welled 96-well plate on the previous day of assay was removed, the fluorescence dye solution was immediately dispensed by 100 μL per well and the cells were cultured in a CO2 incubator for 1 hr to allow intake of the fluorescence dye by the cells. The cells after the culture were washed with the above-mentioned assay buffer and set on FLIPR. The test compound was diluted with dimethylsulfoxide in advance, dispensed to a polypropylene 96-well plate (sample plate) by 2 μL, and cryopreserved at −20° C. To the thawed sample plate was added an assay buffer containing 0.015% CHAPS (DOJIN) by 198 μL, and simultaneously set on FLIPR together with the cell plate. After the aforementioned pre-treatment, changes in the intracellular calcium concentration upon addition of various test compounds was measured by FLIPR. Based on the results, a dose-response curve of each test compound was formed and EC50 was calculated.

T1 sequence (O14842 whole entry): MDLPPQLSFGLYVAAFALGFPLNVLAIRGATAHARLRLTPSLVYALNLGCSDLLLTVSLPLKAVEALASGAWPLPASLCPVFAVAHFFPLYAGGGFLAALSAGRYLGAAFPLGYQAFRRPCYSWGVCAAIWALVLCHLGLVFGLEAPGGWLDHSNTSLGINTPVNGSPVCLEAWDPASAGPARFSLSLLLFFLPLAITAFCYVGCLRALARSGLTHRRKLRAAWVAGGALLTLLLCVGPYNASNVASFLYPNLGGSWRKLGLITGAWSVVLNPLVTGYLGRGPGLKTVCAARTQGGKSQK

SMILES | EC50
CC(C)COc1ccc(COc2ccc(CCC(=O)O)cc2)cc1Cn1c(-c2ccccc2)cc2ccccc21 [Example 60, 3-[4-({4-isobutoxy-3-[(2-phenyl-1H-indol-1-yl)methyl]benzyl)oxy)phenyl]propanoic acid] | < 100 nM
O=C(O)CCc1ccc(OCc2ccc(Cn3ccnc3-c3ccccc3)cc2)cc1 [Example 56, 3-[4-([4-[(2-phenyl-1H-imidazol-1-yl)methyl]benzyl]oxy)phenyl]propanoic acid] | < 1000 nM
O=C(O)CCc1ccc(OCc2ccccc2-c2csc3ccccc23)cc1 [Example 10, 3-(4-{[2-(1-benzothiophen-3-yl)benzyl]oxy}phenyl)propanoic acid] | < 1000 nM
O=C(O)CCc1ccc(OCc2cccc(N3CCOC(c4ccccc4)C3)c2)cc1 (centres unmarked) [Example 29, 3-(4-{[3-(2-phenylmorpholin-4-yl)benzyl]oxy}phenyl)propanoic acid] | < 100 nM
Cc1cccc(COc2cc(C(C)(C)C)nn2Cc2ccc(COc3ccc(CCC(=O)O)c(F)c3)cc2)n1 [Example 137, 3-(4-{[4-({3-tert-butyl-5-[(6-methylpyridin-2-yl)methoxy]-1H-pyrazol-1-yl}methyl)benzyl]oxy}-2-fluorophenyl)propanoic acid calcium salt] | < 100 nM
CC(C)(C)c1cc(OCc2ccccc2)n(Cc2ccc(COc3ccc(CCC(=O)O)c(F)c3)cc2)n1 [Example 133, 3-{4-[(4-([5-(benzyloxy)-3-tert-butyl-1H-pyrazol-1-yl]methyl)benzyl)oxy]-2-fluorophenyl}propanoic acid calcium salt] | < 100 nM
O=C(O)CCc1ccc(OCc2ccc(Cn3nc(-c4ccc(C(F)(F)F)cc4)cc3CCc3ccccc3)cc2)cc1 [Example 65, 3-(4-{[4-({5-(2-phenylethyl)-3-[4-(trifluoromethyl)phenyl]-1H-pyrazol-1-yl}methyl)benzyl]oxy}phenyl)propanoic acid] | < 1000 nM
O=C(O)CCc1ccc(OCc2ccc(Cn3c(-c4ccccc4)cc4ccccc43)cc2)cc1 [Example 45, 3-[4-({4-[(2-phenyl-1H-indol-1-yl)methyl]benzyl}oxy)phenyl]propanoic acid] | < 100 nM
Cc1cc(-c2ccccc2)n(Cc2ccc(COc3ccc(CCC(=O)O)cc3)cc2)n1 [Example 112, 3-[4-([4-[(3-methyl-5-phenyl-1H-pyrazol-1-yl)methyl]benzyl}oxy)phenyl]propanoic acid] | < 100 nM
CC(C)(C)c1cc(-c2ccccc2)n(Cc2ccc(COc3ccc(CCC(=O)O)c(F)c3)cc2)n1 [Example 141, 3-[4-({4-[(3-tert-butyl-5-phenyl-1H-pyrazol-1-yl)methyl]benzyl)oxy)-2-fluorophenyl]propanoic acid] | < 100 nM
CC(C)COc1ccc(COc2ccc(CCC(=O)O)cc2)cc1CN1c2ccccc2CCC1C (centres unmarked) [Example 111, 3-[4-({4-isobutoxy-3-[(2-methyl-3,4-dihydroquinolin-1 (2H)-yl)methyl]benzyl}oxy)phenyl]propanoic acid] | < 1000 nM

Further lines, results first:

EC50 | SMILES
< 10 nM | CC1CCc2ccccc2N1c1cccc(COc2ccc(CCC(=O)O)cc2)c1 (centres unmarked) [Example 40, 3-(4-{[3-(2-methyl-3,4-dihydroquinolin-1 (2H)-yl)benzyl]oxy}phenyl)propanoic acid]
< 100 nM | CC(C)(C)c1cc(COc2ccccc2)n(Cc2ccc(COc3ccc(CCC(=O)O)c(F)c3)cc2)n1 [Example 131, 3-{4-[(4-{[3-tert-butyl-5-(phenoxymethyl)-1H-pyrazol-1-yl]methyl}benzyl)oxy]-2-fluorophenyl}propanoic acid calcium salt]
< 100 nM | CCOCCn1c(-c2ccccc2)c(-c2cccc(COc3ccc(CCC(=O)O)c(F)c3)c2)c2ccccc21 [Example 118, 3-[4-({3-[1-(2-ethoxyethyl)-2-phenyl-1H-indol-3-yl]benzyl}oxy)-2-fluorophenyl]propanoic acid]
< 100 nM | O=C(O)CCc1ccc(OCc2cccc(-c3ccc4c(ccn4Cc4ccccc4)c3)c2)cc1 [Example 20, 3-(4-([3-(1-benzyl-1H-indol-5-yl)benzyl]oxy}phenyl)propanoic acid]
< 10 nM | Cc1sc(C)c(-c2cccc(COc3ccc(CCC(=O)O)cc3)c2)c1C [Example 4, 3-(4-([3-(2,4,5-trimethyl-3-thienyl)benzyl]oxy}phenyl)propanoic acid]
< 10 nM | Cc1cc2ccccc2n1-c1cccc(COc2ccc(CCC(=O)O)cc2)c1 [Example 24, 3-(4-{[3-(2-methyl-1H-indol-1-yl)benzyl]oxy}phenyl)propanoic acid]
